Measurements as given in ChEMBL document CHEMBL4396916, “Novel potent substituted 4-amino-2-thiopyrimidines as dual VEGFR-2 and BRAF kinase inhibitors” (Eur J Med Chem, 2019).

Legend:
T47D [1] = assay: Cytotoxicity against human T47D cells expressing wild type BRAF measured after 48 hrs by sulforhodamine B assay; format: functional, cell-based
[2] = target: Serine/threonine-protein kinase B-raf (Homo sapiens, UniProt P15056); assay: Inhibition of human wild type BRAF by Kinase-Glo luminescence assay
MCF7 [3] = assay: Cytotoxicity against human MCF7 cells expressing VEGFR2 and wild type BRAF measured after 48 hrs by sulforhodamine B assay; format: functional, cell-based; settings: MCF7, 48 h
[4] = target: Vascular endothelial growth factor receptor 2 (Homo sapiens, UniProt P35968); assay: Inhibition of human N-terminal GST tagged VEGFR-2 expressed in baculovirus infected Sf9 cells using poly (Glu,Tyr) 4:1 as substrate in presence of ATP by Kinase-Glo luminescence assay
MCF7 [5] = assay: Inhibition of VEGFR2 level in human MCF7 cells at 10 uM measured after 48 hrs by ELISA relative to control; format: functional; settings: MCF7, 48 h
MOLT-4 = assay: Growth inhibition of human MOLT4 cells at 10 uM incubated for 48 hrs by sulforhodamine B assay relative to control; format: functional; settings: MOLT-4, 48 h, read-out: GI
OVCAR-4 = assay: Growth inhibition of human OVCAR4 cells at 10 uM incubated for 48 hrs by sulforhodamine B assay relative to control; format: functional; settings: OVCAR-4, 48 h, read-out: GI
CCRF-CEM = assay: Growth inhibition of human CCRF-CEM cells at 10 uM incubated for 48 hrs by sulforhodamine B assay relative to control; format: functional; settings: read-out: GI
T47D [6] = assay: Growth inhibition of human T47D cells at 10 uM incubated for 48 hrs by sulforhodamine B assay relative to control; format: functional; settings: read-out: GI
HOP-62 = assay: Growth inhibition of human HOP62 cells at 10 uM incubated for 48 hrs by sulforhodamine B assay relative to control; format: functional; settings: HOP-62, 48 h, read-out: GI
KM12 = assay: Growth inhibition of human KM12 cells at 10 uM incubated for 48 hrs by sulforhodamine B assay relative to control; format: functional; settings: KM12, 48 h, read-out: GI
PC-3 = assay: Growth inhibition of human PC3 cells at 10 uM incubated for 48 hrs by sulforhodamine B assay relative to control; format: functional; settings: PC-3, 48 h, read-out: GI
A498 = assay: Growth inhibition of human A498 cells at 10 uM incubated for 48 hrs by sulforhodamine B assay relative to control; format: functional; settings: A498, 48 h, read-out: GI
UACC-62 = assay: Growth inhibition of human UACC62 cells at 10 uM incubated for 48 hrs by sulforhodamine B assay relative to control; format: functional; settings: UACC-62, 48 h, read-out: GI
MDA-MB-468 = assay: Growth inhibition of human MDA-MB-468 cells at 10 uM incubated for 48 hrs by sulforhodamine B assay relative to control; format: functional; settings: MDA-MB-468, 48 h, read-out: GI
EKVX = assay: Growth inhibition of human EKVX cells at 10 uM incubated for 48 hrs by sulforhodamine B assay relative to control; format: functional; settings: read-out: GI
SK-MEL-5 = assay: Growth inhibition of human SK-MEL-5 cells at 10 uM incubated for 48 hrs by sulforhodamine B assay relative to control; format: functional; settings: SK-MEL-5, 48 h, read-out: GI
UO-31 = assay: Growth inhibition of human UO31 cells at 10 uM incubated for 48 hrs by sulforhodamine B assay relative to control; format: functional; settings: UO-31, 48 h, read-out: GI
A549 = assay: Growth inhibition of human A549/ATCC cells at 10 uM incubated for 48 hrs by sulforhodamine B assay relative to control; format: functional; settings: A549, 48 h, read-out: GI
NCI/ADR-RES = assay: Growth inhibition of human NCI/ADR-RES cells at 10 uM incubated for 48 hrs by sulforhodamine B assay relative to control; format: functional; settings: read-out: GI
HCT-15 = assay: Growth inhibition of human HCT15 cells at 10 uM incubated for 48 hrs by sulforhodamine B assay relative to control; format: functional; settings: HCT-15, 48 h, read-out: GI
RPMI-8226 = assay: Growth inhibition of human RPMI8226 cells at 10 uM incubated for 48 hrs by sulforhodamine B assay relative to control; format: functional; settings: RPMI-8226, 48 h, read-out: GI
K562 = assay: Growth inhibition of human K562 cells at 10 uM incubated for 48 hrs by sulforhodamine B assay relative to control; format: functional; settings: K562, 48 h, read-out: GI
SF-295 = assay: Growth inhibition of human SF295 cells at 10 uM incubated for 48 hrs by sulforhodamine B assay relative to control; format: functional; settings: SF-295, 48 h, read-out: GI
OVCAR-8 = assay: Growth inhibition of human OVCAR8 cells at 10 uM incubated for 48 hrs by sulforhodamine B assay relative to control; format: functional; settings: OVCAR-8, 48 h, read-out: GI
NCI-H226 = assay: Growth inhibition of human NCI-H226 cells at 10 uM incubated for 48 hrs by sulforhodamine B assay relative to control; format: functional; settings: NCI-H226, 48 h, read-out: GI
CAKI-1 = assay: Growth inhibition of human Caki1 cells at 10 uM incubated for 48 hrs by sulforhodamine B assay relative to control; format: functional; settings: CAKI-1, 48 h, read-out: GI
NCI-H522 = assay: Growth inhibition of human NCI-H522 cells at 10 uM incubated for 48 hrs by sulforhodamine B assay relative to control; format: functional; settings: NCI-H522, 48 h, read-out: GI
ACHN = assay: Growth inhibition of human ACHN cells at 10 uM incubated for 48 hrs by sulforhodamine B assay relative to control; format: functional; settings: read-out: GI
NCI-H23 = assay: Growth inhibition of human NCI-H23 cells at 10 uM incubated for 48 hrs by sulforhodamine B assay relative to control; format: functional; settings: NCI-H23, 48 h, read-out: GI
MCF7 [7] = assay: Growth inhibition of human MCF7 cells at 10 uM incubated for 48 hrs by sulforhodamine B assay relative to control; format: functional; settings: MCF7, 48 h, read-out: GI
MDA-MB-231 = assay: Growth inhibition of human MDA-MB-231 cells at 10 uM incubated for 48 hrs by sulforhodamine B assay relative to control; format: functional; settings: MDA-MB-231, 48 h, read-out: GI
SNB-75 = assay: Growth inhibition of human SNB75 cells at 10 uM incubated for 48 hrs by sulforhodamine B assay relative to control; format: functional; settings: SNB-75, 48 h, read-out: GI
IGROV-1 = assay: Growth inhibition of human IGROV1 cells at 10 uM incubated for 48 hrs by sulforhodamine B assay relative to control; format: functional; settings: IGROV-1, 48 h, read-out: GI
Malme-3M = assay: Growth inhibition of human MALME-3M cells at 10 uM incubated for 48 hrs by sulforhodamine B assay relative to control; format: functional; settings: read-out: GI
Hs-578T = assay: Growth inhibition of human Hs578T cells at 10 uM incubated for 48 hrs by sulforhodamine B assay relative to control; format: functional; settings: read-out: GI
HOP-92 = assay: Growth inhibition of human HOP92 cells at 10 uM incubated for 48 hrs by sulforhodamine B assay relative to control; format: functional; settings: HOP-92, 48 h, read-out: GI

Vascular endothelial growth factor receptor 2, sequence (P35968 whole entry): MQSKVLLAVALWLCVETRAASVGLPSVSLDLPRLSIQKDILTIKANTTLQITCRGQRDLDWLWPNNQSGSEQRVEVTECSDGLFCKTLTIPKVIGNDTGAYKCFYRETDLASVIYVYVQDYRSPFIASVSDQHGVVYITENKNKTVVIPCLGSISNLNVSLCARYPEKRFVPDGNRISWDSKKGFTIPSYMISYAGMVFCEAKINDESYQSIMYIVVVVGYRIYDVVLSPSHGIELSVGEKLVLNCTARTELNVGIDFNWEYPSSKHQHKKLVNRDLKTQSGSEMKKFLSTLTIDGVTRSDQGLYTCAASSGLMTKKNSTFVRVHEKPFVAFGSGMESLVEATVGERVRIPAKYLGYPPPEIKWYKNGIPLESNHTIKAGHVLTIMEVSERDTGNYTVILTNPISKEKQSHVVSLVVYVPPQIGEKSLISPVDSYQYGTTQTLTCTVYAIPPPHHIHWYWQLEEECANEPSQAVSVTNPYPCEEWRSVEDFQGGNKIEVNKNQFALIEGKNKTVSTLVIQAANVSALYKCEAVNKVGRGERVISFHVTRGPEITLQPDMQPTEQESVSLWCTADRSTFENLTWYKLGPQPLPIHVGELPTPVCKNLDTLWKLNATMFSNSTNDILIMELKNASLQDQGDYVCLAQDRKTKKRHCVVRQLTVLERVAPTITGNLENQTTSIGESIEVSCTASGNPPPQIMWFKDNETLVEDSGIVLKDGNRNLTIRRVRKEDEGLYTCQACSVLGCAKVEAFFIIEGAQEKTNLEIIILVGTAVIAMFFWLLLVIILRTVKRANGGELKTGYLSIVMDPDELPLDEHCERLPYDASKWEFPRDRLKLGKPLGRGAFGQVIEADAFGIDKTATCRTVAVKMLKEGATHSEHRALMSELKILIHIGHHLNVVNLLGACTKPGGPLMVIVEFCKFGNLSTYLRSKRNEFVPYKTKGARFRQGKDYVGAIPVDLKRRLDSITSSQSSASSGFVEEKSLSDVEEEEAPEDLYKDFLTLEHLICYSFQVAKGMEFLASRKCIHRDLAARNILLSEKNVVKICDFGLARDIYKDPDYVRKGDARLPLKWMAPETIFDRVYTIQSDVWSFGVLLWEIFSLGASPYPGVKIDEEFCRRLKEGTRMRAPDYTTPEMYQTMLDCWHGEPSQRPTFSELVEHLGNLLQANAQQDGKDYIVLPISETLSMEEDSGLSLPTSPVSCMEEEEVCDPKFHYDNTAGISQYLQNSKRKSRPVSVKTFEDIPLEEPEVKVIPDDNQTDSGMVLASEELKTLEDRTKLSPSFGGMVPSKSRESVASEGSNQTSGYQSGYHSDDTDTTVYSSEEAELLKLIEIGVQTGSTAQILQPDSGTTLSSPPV
Serine/threonine-protein kinase B-raf, sequence (P15056 whole entry): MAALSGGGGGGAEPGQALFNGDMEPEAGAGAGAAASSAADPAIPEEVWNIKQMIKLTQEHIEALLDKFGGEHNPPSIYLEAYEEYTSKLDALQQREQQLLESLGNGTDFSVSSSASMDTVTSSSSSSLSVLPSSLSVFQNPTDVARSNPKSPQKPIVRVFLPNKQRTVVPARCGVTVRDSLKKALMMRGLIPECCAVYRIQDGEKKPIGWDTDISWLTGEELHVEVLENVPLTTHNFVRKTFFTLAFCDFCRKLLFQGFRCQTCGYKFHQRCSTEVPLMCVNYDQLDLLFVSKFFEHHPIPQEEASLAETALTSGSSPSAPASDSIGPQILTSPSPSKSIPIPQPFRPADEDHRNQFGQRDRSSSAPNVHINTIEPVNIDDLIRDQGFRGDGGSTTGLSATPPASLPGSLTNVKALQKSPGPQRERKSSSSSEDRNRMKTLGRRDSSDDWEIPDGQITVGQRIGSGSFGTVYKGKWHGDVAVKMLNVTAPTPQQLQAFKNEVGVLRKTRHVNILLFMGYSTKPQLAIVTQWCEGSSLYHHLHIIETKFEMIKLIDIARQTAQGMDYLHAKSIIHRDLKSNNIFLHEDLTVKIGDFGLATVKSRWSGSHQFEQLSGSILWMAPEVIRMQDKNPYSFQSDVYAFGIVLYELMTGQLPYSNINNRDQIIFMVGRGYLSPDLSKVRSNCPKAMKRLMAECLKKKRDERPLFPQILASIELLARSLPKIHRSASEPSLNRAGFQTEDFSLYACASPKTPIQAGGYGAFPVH

`CCOC(=O)c1ccc(Nc2ccnc(SCC(=O)c3ccc(OC)cc3)n2)cc1` showed an IC50 (T47D [1]) of 43.4 µM, an IC50 [2] of 0.41 µM and an IC50 (MCF7 [3]) of 32.1 µM. For the same compound, the IC50 [4] was 0.19 µM and the inhibition at 10 µM (MCF7 [5]) was 12%.

For `O=C(O)c1ccc(Nc2ccnc(SCC(=O)c3ccc([N+](=O)[O-])cc3)n2)cc1`, the IC50 (MCF7 [3]) was 53.2 µM and the IC50 [4] was greater than 10 µM.

`O=C(O)c1ccc(Nc2ccnc(SCC(=O)c3ccc(-c4ccccc4)cc3)n2)cc1` showed an IC50 (MCF7 [3]) of 49 µM and an IC50 [4] of 0.57 µM.

With `CNC(=O)c1cc(Oc2ccc(NC(=O)Nc3ccc(Cl)c(C(F)(F)F)c3)cc2)ccn1` [SORAFENIB] the IC50 (T47D [1]) was 1.6 µM, the IC50 (MCF7 [3]) was 4.33 µM and the inhibition at 10 µM (MCF7 [5]) was 90%.

`N#Cc1ccc(C(=O)CSc2nccc(Nc3ccc(C(=O)O)cc3)n2)cc1` showed an IC50 [2] of 1.7 µM, an IC50 (MCF7 [3]) of 17.2 µM and an IC50 [4] of 0.12 µM. For the same compound, the inhibition at 10 µM (MCF7 [5]) was 77%.

`CC(=O)c1ccc(Nc2ccnc(SCC(=O)c3ccc(Cl)cc3)n2)cc1` gave an inhibition of growth at 10 µM (MOLT-4) of 33%, an IC50 (T47D [1]) of 14.5 µM and an inhibition of growth at 10 µM (OVCAR-4) of 18%. It also gave an inhibition of growth at 10 µM (CCRF-CEM) of 29%, an inhibition of growth at 10 µM (T47D [6]) of 71% and an IC50 [2] of 0.64 µM. The inhibition of growth at 10 µM (HOP-62) was 14%, the inhibition of growth at 10 µM (KM12) was 11% and the inhibition of growth at 10 µM (PC-3) was 30%. The inhibition of growth at 10 µM (A498) was 19%, the inhibition of growth at 10 µM (UACC-62) was 34% and the inhibition of growth at 10 µM (MDA-MB-468) was 27%. The inhibition of growth at 10 µM (EKVX) was 10%, the inhibition of growth at 10 µM (SK-MEL-5) was 65% and the inhibition of growth at 10 µM (UO-31) was 33%. It also gave an inhibition of growth at 10 µM (A549) of 20%, an inhibition of growth at 10 µM (NCI/ADR-RES) of 46% and an inhibition of growth at 10 µM (HCT-15) of 14%. For the same compound, the inhibition of growth at 10 µM (RPMI-8226) was 46%, the inhibition of growth at 10 µM (K562) was 19% and the inhibition of growth at 10 µM (SF-295) was 14%. The inhibition of growth at 10 µM (OVCAR-8) was 29%, the inhibition of growth at 10 µM (NCI-H226) was 21% and the inhibition of growth at 10 µM (CAKI-1) was 21%. For the same compound, the inhibition of growth at 10 µM (NCI-H522) was 29%, the IC50 (MCF7 [3]) was 55.2 µM and the inhibition of growth at 10 µM (ACHN) was 11%. For the same compound, the inhibition of growth at 10 µM (NCI-H23) was 13%, the IC50 [4] was 0.22 µM and the inhibition of growth at 10 µM (MCF7 [7]) was 19%.

`O=C(O)c1ccc(Nc2ccnc(SCC(=O)c3ccc(C(F)(F)F)cc3)n2)cc1` was tested, and the inhibition of growth at 10 µM (MDA-MB-231) was 24%, the inhibition of growth at 10 µM (PC-3) was 12% and the inhibition of growth at 10 µM (A498) was 39%. The inhibition of growth at 10 µM (UACC-62) was 12%, the inhibition of growth at 10 µM (EKVX) was 10% and the inhibition of growth at 10 µM (UO-31) was 32%. The inhibition of growth at 10 µM (A549) was 10%, the inhibition of growth at 10 µM (SNB-75) was 28% and the inhibition of growth at 10 µM (IGROV-1) was 13%. The inhibition of growth at 10 µM (Malme-3M) was 30%, the inhibition of growth at 10 µM (NCI-H226) was 13% and the inhibition of growth at 10 µM (CAKI-1) was 19%. It also gave an inhibition of growth at 10 µM (NCI-H522) of 15%, an inhibition of growth at 10 µM (Hs-578T) of 10% and an IC50 (MCF7 [3]) of 67.5 µM. The IC50 [4] was greater than 10 µM and the inhibition of growth at 10 µM (HOP-92) was 16%.

In the case of `N#Cc1ccc(C(=O)CSc2nccc(Nc3ccc(N4CCOCC4)cc3)n2)cc1`, the IC50 (MCF7 [3]) is reported as 69 µM and the IC50 [4] is reported as 1.1 µM.
